Tested on: U87MG human glioblastoma cells
Assay: Determination of In Vivo Efficacy: U87MG human glioblastoma xenograft tumor volume;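 note: subcutaneous flank xenografts in female athymic nude mice, tumor volume measured twice weekly, log volumes compared with the combined-vehicle control group by repeated measures ANOVA at each time point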
Conditions: for Tumor volume Mean / Signif. (difference in tumor volume relative to the vehicle group): 3 mg/kg of each agent orally once daily; for Tumor volume Mean: U87MG xenograft in nude mice
Protocol: The vehicle group is given the 2 vehicles (NaCMC Tween 80 and 35% PEG300/10% HPBCD/10% PS80 in H2O) in combination (0.1 mL of each). Treatment is continued for 23 days. Tumor volumes are measured using standard technique twice weekly and reported. Tumor size and body weight are recorded and analyzed bi-weekly. Tumor volume is estimated by using the formula: v=l×w^2×0.536 where l=larger of measured diameter and w=smaller of perpendicular diameter. The analysis uses SAS software version 8.2 (SAS Institutes Inc, Cary, N.C.) to analyze the log tumor volume data using a repeated measures ANOVA model with a spatial power covariance structure. For each time point taken, treatment groups are compared to the vehicle control group. Tumor volumes are given as means±standard errors for each treatment group determined from a repeated measures ANOVA on each group.
The data in the column headed Signif. indicates whether the difference relative to the vehicle group is statistically significant: NS=Not Significant (p>0.05); *=0.01<p≦0.05; **=0.001<<p≦0.01; ***=p≦0.001.

SMILES | Tumor volume Mean (Day 7) | Tumor volume Mean (Day 10) | Tumor volume Mean (Day 13) | Tumor volume Mean (Day 16) | Tumor volume Mean (Day 20) | Tumor volume Mean (Day 23) | Tumor volume Mean (Day 27) | Tumor volume Mean (Day 30) | Tumor volume Mean (Day 34) | Statistical difference from the vehicle group (in words) (whole study (throughout), 3 mg/kg orally once daily) | Signif. (difference in tumor volume relative to the vehicle group) (Day 7) | Signif. (difference in tumor volume relative to the vehicle group) (Day 10) | Signif. (difference in tumor volume relative to the vehicle group) (Day 13) | Signif. (difference in tumor volume relative to the vehicle group) (Day 16) | Signif. (difference in tumor volume relative to the vehicle group) (Day 20) | Signif. (difference in tumor volume relative to the vehicle group) (Day 23) | Signif. (difference in tumor volume relative to the vehicle group) (Day 27) | Signif. (difference in tumor volume relative to the vehicle group) (Day 30) | Signif. (difference in tumor volume relative to the vehicle group) (Day 34)
CO[C@H]1CC2CC[C@@H](C)[C@@](O)(O2)C(=O)C(=O)N2CCCC[C@H]2C(=O)O[C@H]([C@H](C)C[C@@H]2CC[C@@H](O)[C@H](OC)C2)CC(=O)[C@H](C)/C=C(\C)[C@@H](O)[C@@H](OC)C(=O)[C@H](C)C[C@H](C)/C=C/C=C/C=C/1C [Rapamycin, rapamycin, reference compound] | 43.1 | 65.6 | 121.9 | 220.4 | 311.5 | 606.0 | 879.7 | 1160.8 | 1429.5 | not significantly different |  |  |  |  |  |  |  |  | 
Cn1cc(-c2ccc(F)c(C(F)(F)F)c2)nc1C1CCN(c2ncnc3[nH]ncc23)CC1 [p70 S6 Kinase Inhibitor] | 43.8 | 79.6 | 118.7 | 159.0 | 233.6 | 539.1 | 928.6 | 1158.5 | 1256.6 |  | NS (NS=Not Significant (p>0.05)) | NS (NS=Not Significant (p>0.05)) | NS (NS=Not Significant (p>0.05)) | * (*=0.01<p≦0.05) | * (*=0.01<p≦0.05) | NS (NS=Not Significant (p>0.05)) | NS (NS=Not Significant (p>0.05)) | NS (NS=Not Significant (p>0.05)) | NS (NS=Not Significant (p>0.05))

Reference: patent US20110212977A1, “P70 S6 KINASE INHIBITOR AND MTOR INHIBITOR COMBINATION THERAPY” (ELI LILLY AND COMPANY, priority 2008, published 2011)
